{"source": "patent US20190071670A1", "about": "“Methods Of Treatment For Alpha-1 Antitrypsin Deficiency” (Arrowhead Pharmaceuticals, Inc., priority 2016, published 2019)", "key": {"[1]": {"system": "liver morphology of PiZ mice", "test": "Liver histology (H&E) of PiZ mice", "format": "in vivo", "method": "(§1) AAT RNAi agent was administered to PiZ mice. Each mouse received a biweekly administration of an intravenous (IV) dose of 8 mg/kg AAT RNAi agent with 8 mg/kg of MLP delivery polymer for 8 weeks. Mice were bled weekly to monitor hAAT levels in serum and were sacrificed on day 57 after administration of AAT RNAi agent with MLP delivery polymer. Liver samples were harvested and fixed in 10% neutral-buffered formalin and embedded in paraffin. Inflammatory infiltration was assessed by H&E staining. […] PiZ mice injected biweekly with saline had significant globule accumulation as well as inflammatory infiltration around damaged or dead hepatocytes. Aggregation of Z-hAAT was visualized by performing diastase-resistant periodic acid Schiff (PAS-D) staining on liver sections. Diastase digestion of glycogen prior to performing a PAS stain allows positive staining of Z-AAT protein accumulation, or “globules”. […] The number of globules, the size of the globules and the area of the liver covered by globules was digitally quantitated from liver specimens stained with PAS-D. Mice treated with AAT RNAi agent had 85% fewer globules, 85% smaller globules, and 96% less area of the liver covered with globules than saline-injected controls (FIG. 3).\nBaseline mice had significant globule accumulation with globules that were 5-10 microns in diameter, compressed nuclei, apoptosis and inflammatory cell infiltration. Saline treated mice had significant globule accumulation with globules that were 25-35 microns in diameter, compressed nuclei, and inflammatory cell infiltration."}, "Z-hAAT": {"system": "Z-hAAT", "test": "Semi-quantitative Western blot of soluble (monomer) and insoluble (polymer) Z-hAAT in PiZ mouse liver", "format": "in vivo, human (expressed in PiZ mice)", "method": "A modified western blot protocol was used to separate the soluble and insoluble Z-hAAT fractions under non-denaturing conditions as previously described (Mueller et al. Molecular Therapy 2012).\nPiZ mice treated biweekly with 8 mg/kg AAT RNAi agent for 32 weeks were compared with mice at start of study (baseline) and control mice injected for 32 weeks with saline vehicle. Monomeric and polymeric Z-hAAT protein in the livers of these mice were compared by semi-quantitative Western blotting (FIG. 7). […] Monomeric Z-AAT was reduced by 90% and polymeric Z-AAT was reduced by 48% in the AAT RNAi agent treated mice (p<0.0001).\nOne animal from each of Groups 2, 3, and 4 died prior to completion of the study. After sacrifice, monomeric and polymeric Z-hAAT protein in the livers of these mice were compared by semi-quantitative Western blotting over a course of 3 separate runs. Western blot Run 1 included six mice from Group 1, four mice from Group 2, and five mice from Group 4. Western blot Run 2 includes three mice from Group 1, six mice from Group 3 and 5 mice from Group 5. Western blot Run 3 includes three mice from Group 1, 2 mice from Group 4, 2 mice from Group 5, 7 mice from Group 6."}, "Z-AAT globules": {"system": "Z-AAT globules", "test": "PAS-D staining and digital quantitation of Z-AAT globules in PiZ mouse liver", "format": "in vivo, human (expressed in PiZ mice)", "settings": "for area of the liver covered with globules reduced / smaller globules: 6 month old female PiZ mice, single IV 8 mg/kg + 8 mg/kg MLP delivery polymer", "method": "as §1\nHuman AAT protein levels in serum were monitored for 29 days. At the indicated times, blood samples were collected and assayed for hAAT by ELISA. Day 1 samples were collected prior to trigger administration. For mRNA analysis, 3-4 mice were euthanized at each of days 3, 8, 15, 22, and 29. For euthanized mice, cardiac stick were performed for serum isolation for AAT ELISA (200 μl serum). Half of the left lateral liver lobe was collected and snap-freeze in liquid nitrogen for RNA isolation. The remainder of the left lobes were embedded into paraffin blocks for PAS-D staining with hematoxylin as counter-stain. Serum hAAT levels in mice given AAT Duplex Pair SEQ ID NO: 5/6 were 95% reduced on day 8 and remained reduced to day 29, at which time they were 79% reduced. Mice given AAT Duplex Pair SEQ ID NO: 5/6 were euthanized at either day 3, 8, 15, 22 or 29. Mice given saline or Luciferase siRNA control (SEQ ID 7/8) were euthanized on day 29. Levels of hAAT mRNA in the livers were measured by RT-qPCR. The hAAT mRNA in mice given AAT Duplex Pair SEQ ID NO: 5/6 was reduced by 97% on day 3 and remained reduced on day 29, at which time levels were 56% reduced. The size of the globules and the area of the liver covered by globules was digitally quantitated from liver specimens stained with PAS-D. Duplex Pair SEQ ID NO: 5/6 treated mice had 70% smaller globules at day 15 and 62% smaller globules at day 29. The area of the liver covered with globules was 83% reduced on day 15 and 72% reduced on day 29 (FIG. 5)."}, "[2]": {"settings": "PiZ mice, AAT RNAi agent + MLP treated, n = 16"}, "[3]": {"settings": "male PiZ mice, biweekly AAT RNAi agent with MLP (Example 9)"}, "[4]": {"settings": "Western blot Run 1, Group 4 (n = 5): male PiZ mice, 8 mg/kg + 4 mg/kg MLP, 20 × q2w, euthanized Week 39"}, "[5]": {"settings": "male PiZ mice liver, biweekly 8 mg/kg (with MLP) for 32 weeks, p<0.0001"}, "[6]": {"settings": "PiZ mice, four biweekly IV doses 8 mg/kg with 8 mg/kg MLP delivery polymer over 8 weeks, PAS-D"}}, "data": [{"substance": "Duplex Pair SEQ ID NO: 5/6: double-stranded AAT RNAi agent: modified antisense strand SEQ ID NO: 5 annealed to Chol-TEG sense strand SEQ ID NO: 6 (antisense TGGAACUUGGUGAUGAUAUTT; sense UAUAUAUCAUCACCAAGUUCCAT; Chol-TEG on sense strand; chemical modifications; antisense strand of dsRNA; modified_base 7 /mod_base = “2′-3′ seco corresponding nucleotide”; modified_base 2,4,6,8,10,12,14,16,18 /mod_base = “2′-deoxy-2′-fluoro corresponding nucleoside”; modified_base 3,5,9,11,13,15,17,19 /mod_base = “2′-O-methyl corresponding nucleoside”; modified_base 21 /mod_base = “5′-phosphorothioate corresponding nucleotide”; sense strand of dsRNA; modified_base 2 /mod_base = “2′-hydroxy corresponding nucleoside”; modified_base 4,6,8,10,12,14,16,18,20,22 /mod_base = “2′-deoxy-2′-fluoro corresponding nucleoside”; …)", "values": [{"measurement": "Score: Inflammatory foci, Moderate (number of animals)", "setting": "[1]; [2]", "result": 11}, {"measurement": "Score: Inflammatory foci, None (number of animals)", "setting": "[1]; [2]", "result": 5}, {"measurement": "Score: Inflammatory foci, Severe (number of animals)", "setting": "[1]; [2]", "result": 0}, {"measurement": "Score: Compressed nuclei (animals/total)", "setting": "[1]; PiZ mice, AAT RNAi agent + MLP treated, n = 16, baseline 7/12, saline 13/13", "result": "3/16"}, {"measurement": "Liver morphology and inflammatory infiltration (H&E staining)", "setting": "[1]; PiZ mice, biweekly IV 8 mg/kg with 8 mg/kg MLP delivery polymer for 8 weeks, day 57", "result": "normal morphology, no detectably inflammatory infiltrate and very rare, small Z-hAAT globules"}, {"measurement": "compressed nuclei", "setting": "[1]; [3]", "result": "fewer compressed nuclei than either baseline or saline-treated mice"}, {"measurement": "inflammatory infiltration", "setting": "[1]; [3]", "result": "no inflammatory infiltration"}, {"measurement": "globule diameter", "setting": "[1]; male PiZ mice, biweekly AAT RNAi agent with MLP (Example 9), baseline 5-10, saline 25-35 microns", "result": "7-10 microns"}, {"measurement": "globule accumulation", "setting": "[1]; male PiZ mice, biweekly AAT RNAi agent with MLP (Example 9), baseline and saline: significant", "result": "minimal to moderate"}, {"measurement": "Z-hAAT monomeric protein, Average (Standard deviation)", "setting": "Z-hAAT; [4]", "result": "71.4 (15.6)"}, {"measurement": "Z-hAAT monomeric protein, Average Normalized to Baseline (Group 1)", "setting": "Z-hAAT; [4]", "result": 0.126}, {"measurement": "Z-hAAT monomeric protein, Average Normalized to Saline (Group 2)", "setting": "Z-hAAT; [4]", "result": 0.152}, {"measurement": "Z-hAAT polymeric protein, Average (Standard deviation)", "setting": "Z-hAAT; [4]", "result": "1809.1 (932.5)"}, {"measurement": "Z-hAAT polymeric protein, Average Normalized to Baseline (Group 1)", "setting": "Z-hAAT; [4]", "result": 0.419}, {"measurement": "Z-hAAT polymeric protein, Average Normalized to Saline (Group 2)", "setting": "Z-hAAT; [4]", "result": 0.238}, {"measurement": "Z-AAT polymer burden and diseased liver morphology", "setting": "Z-hAAT; male PiZ mice 11-17 weeks old, biweekly 4, 8 or 12 mg/kg with MLP delivery polymer (2:1) for 16, 24 or 32-33 weeks", "result": "a reduction in the Z-AAT polymer burden and a reduction in the diseased liver morphology"}, {"measurement": "Monomeric Z-AAT reduced", "setting": "Z-hAAT; [5]", "result": 90, "unit": "%"}, {"measurement": "polymeric Z-AAT reduced", "setting": "Z-hAAT; [5]", "result": 48, "unit": "%"}, {"measurement": "area of the liver covered with globules reduced", "setting": "Z-AAT globules; day 15", "result": 83, "unit": "%"}, {"measurement": "smaller globules", "setting": "Z-AAT globules; day 15", "result": 70, "unit": "%"}, {"measurement": "area of the liver covered with globules reduced", "setting": "Z-AAT globules; day 29", "result": 72, "unit": "%"}, {"measurement": "smaller globules", "setting": "Z-AAT globules; day 29", "result": 62, "unit": "%"}, {"measurement": "fewer globules (number of globules) than saline-injected controls", "setting": "Z-AAT globules; [6]", "result": 85, "unit": "%"}, {"measurement": "less area of the liver covered with globules than saline-injected controls", "setting": "Z-AAT globules; [6]", "result": 96, "unit": "%"}, {"measurement": "smaller globules (size of the globules) than saline-injected controls", "setting": "Z-AAT globules; [6]", "result": 85, "unit": "%"}]}]}
